Source: US20130071328A1, “Propynoic Acid Carbamoyl Methyl-Amides and Pharmaceutical Compositions and Methods Based Thereon” (UNIVERSITY OF SOUTHERN CALIFORNIA, priority 2011, published 2013)

Columns and labels:
[1] = tested on: HT29 colon cancer cell line; assay: MTT cytotoxicity assay, HT29; format: cell-based; details: Homo sapiens, HT-29, 72 h exposure
Excerpt: (§1) The human breast cancer cell line MDA-MB-435 and the colon cancer cell line HT29 were purchased from the American Type Cell Culture (Manassas, Va.). Colon cancer cell lines HCT116 p53^+/+ and HCT116 p53^−/− were kindly provided by Dr. Bert Vogelstein (Johns Hopkins Medical Institutions, Baltimore, Md.). The human ovarian carcinoma cell line (HEY), naturally resistant to cisplatin (CDDP), was kindly provided by Dr. Louis Dubeau (USC Norris Cancer Center). The bladder cancer cell lines were kindly provided by Dr. Richard Cote (USC Keck School of Medicine). Cells were maintained as monolayer cultures in the appropriate media: RPMI-1640 (HT29, HCT116 p53^+/+, HCT116 p53^−/−, and HEY cell lines) or DMEM (MDA-MB-435 and UMUC3 cell lines) supplemented with 10% fetal bovine serum (FBS) (HyClone, Road Logan, Utah) at 37° C. in a humidified atmosphere of 5% CO2. To remove the adherent cells from the flask for subculture and counting, cells were washed with PBS without calcium or magnesium, incubated with a small volume of 1×trypsin-EDTA solution (Sigma-Aldrich, St. Louis, Mo.) for 5 min, resuspended with fresh culture medium, and centrifuged at 1200 rpm for 5 min. All experiments were performed using cells in exponential growth phase. Cells were routinely checked for Mycoplasma contamination using PlasmaTest kit (InvivoGen, San Diego, Calif.).
(§2) Cytotoxicity was assessed by MTT assay as described previously. 43 In brief, cells were seeded in 96-well microtiter plates and allowed to attach overnight. Cells were subsequently treated with continuous exposure to corresponding drugs for 72 h. At the end of treatments, an MTT solution (at a final concentration of 0.5 mg/mL) was added to each well, and cells were incubated for 4 h at 37° C. After removal of the supernatant, DMSO was added, and the absorbance was read at 570 nm. All assays were done in triplicate. The IC50 was then determined for each drug from a plot of log(drug concentration) versus percentage of cells killed.

[2] = tested on: HCT116 p53^+/+ colon cancer cell line; assay: MTT cytotoxicity assay, HCT116 p53+/+; format: cell-based; details: Homo sapiens, HCT-116, 72 h exposure
Excerpt: as §1, §2

[3] = tested on: HCT116 p53^−/− colon cancer cell line; assay: MTT cytotoxicity assay, HCT116 p53-/-; format: cell-based; details: Homo sapiens, HCT-116, 72 h exposure
Excerpt: as §1, §2

[4] = tested on: HEY ovarian cancer cell line; assay: Cytotoxicity assay, HEY; format: cell-based; details: Homo sapiens
Excerpt: as §1, §2

[5] = tested on: MDA-MB-435 breast cancer cell line; assay: MTT cytotoxicity assay, MDA-MB-435; format: cell-based, human; details: for IC50: 72 h exposure
Excerpt: as §1, §2

[6] = tested on: UMUC3 bladder cancer cell line; assay: MTT cytotoxicity assay, UMUC3; format: cell-based; details: Homo sapiens, 72 h exposure
Excerpt: as §1, §2

[7] = tested on: 5637 bladder cancer cell line; assay: MTT cytotoxicity assay, 5637; format: cell-based, human; details: Homo sapiens, 72 h exposure
Excerpt: as §1, §2

[8] = tested on: doxorubicin-resistant NCI/ADR-RES ovarian cancer cell line; assay: Cytotoxicity assay, NCI/ADR-RES; format: cell-based; details: Homo sapiens
Protocol: as §2

[9] = Pharmacokinetics study after i.p. administration; format: in vivo, mice; details: mouse, ip
Protocol: To assess the efficacy, tolerability, and pharmacokinetics of these novel compounds following i.p. administration, the pharmacokinetic profile of compounds 4 and 9 was evaluated (Table 3). Mice were treated with compounds 4 and 9 via i.p. injection and serial blood sampling was determined at indicated times after administration. The plasma concentration was determined using a validated liquid chromatography mass spectrometry (LC-MS) method where the lowest level of quantification was 1 ng/mL. One hour following i.p. administration of compounds 4 and 9, their concentrations in the blood were 344 and 6.2 ng/mL, respectively. […] The half-lives of compounds 4 and 9 via i.p. administration were determined to be approximately 3.5 and 9.3 hours, respectively, when a non-compartmental pharmacokinetics analysis was used. The favorable pharmacokinetics profile of compounds 4 and 9 is consistent with the ADMET predictions described previously.
Preliminary pharmacokinetics of compounds 4 and 9 were performed using 18 mice, each time point consisting of two mice. Mice were stratified to various doses given as an i.p. injection of compounds 4 and 9 (24 mg/kg). At the specified time points following drug administration, blood was collected with heparinized syringes. The samples were allowed to settle in 500 μL eppendorf vials and then centrifuged at 1500 rpm for 10 min. The plasma was removed, transferred into new eppendorf tube, and frozen at −80° C. until analysis.

[10] = tested on: OVCAR8 ovarian cancer cell line; assay: In vitro cytotoxicity, OVCAR8; format: cell-based; details: Homo sapiens, OVCAR-8; Table 4, ovarian cancer panel
Protocol: as §2

[11] = tested on: OVCAR3 ovarian cancer cell line; assay: In vitro cytotoxicity, OVCAR3; format: cell-based; details: Homo sapiens, OVCAR-3; Table 4, ovarian cancer panel
Protocol: as §2

MDA-MB-435 cells = assay: Mitochondrial superoxide production (MitoSOX Red); format: cell-based, human; details: 1.5 μM
Protocol: After drug treatments, a solution of 5 μM MitoSOX Red mitochondrial superoxide indicator (Invitrogen, Carlsbad, Calif.) was added, and cells were incubated for 10 min at 37° C. Cells were then washed three times with Hank's balanced salt solution (HBSS) to remove excess MitoSOX. After washing, cells were either observed under the fluorescence microscope or collected by trypsinization, washed twice with HBSS, and measured for superoxide production using a BD LSRII flow cytometer (BD Biosciences, San Jose, Calif., USA). Data were analyzed with the BD FACSDiva software package (BD Biosciences, San Jose, Calif., USA).

Compound	IC50 ([8]; Table 4, ovarian cancer panel)	IC50 [10]	IC50 [11]	also measured
C#CC(=O)N(c1ccc(-n2cnnn2)c(C)c1)C(C(=O)NC1CCCC1)c1ccccc1 (stereo not shown) [Compound 9, N-[2-(Cyclopentylamino)-2-oxo-1-phenylethyl]-N-[3-methyl-4-(1Htetraazol-1-yl)phenyl]Propynamide]	–	–	–	IC50 [1]: 1.5 ± 1.1 µM; IC50 [2]: 7.2 ± 0.2 µM; IC50 [3]: 5.7 ± 0.9 µM; IC50 ([4]; MTT, 72 h exposure (Table 2)): 1900 ± 300 nM; cytotoxic potency in MDA-MB-435 cells [5]: most potent analogue; IC50 [5]: 0.6 ± 0.3 µM; IC50 ([5]; Homo sapiens, MDA-MB-435, 72 h): 0.6 to 6.3 µM; IC50 [6]: 7.8 ± 1.8 µM; IC50 [7]: 400 ± 100 nM; IC50 ([8]; MTT, 72 h exposure (Table 2)): 1000 ± 700 nM; AUC ([9]; in vivo, 24 mg/kg): 124.9 ng·h/mL; Cmax ([9]; in vivo, 24 mg/kg): 6.2 ng/mL; Tmax ([9]; in vivo, 24 mg/kg): 5 h; half-life ([9]; in vivo, 24 mg/kg): ~558 min; t1/2 ([9]; in vivo, 24 mg/kg): 9.3 h; concentration at 1 h ([9]; plasma, mice, 24 mg/kg i.p., 1 hour, read-out: concentration in the blood one hour following i.p. administration): 6.2 ng/mL
C#CC(=O)N(c1ccccc1F)C(C(=O)NC1CCCCC1)c1ccccc1F (stereo not shown) [Compound 19, N-[2-(Cyclohexylamino)-1-(2-fluorophenyl)-2-oxoethyl]-N-(2-fluorophenyl)Propynamide]	–	–	–	IC50 [1]: 7.7 ± 0.5 µM; IC50 [2]: 11.9 ± 0.1 µM; IC50 [3]: 10.1 ± 2.9 µM; IC50 ([4]; MTT, 72 h exposure (Table 2)): 5600 ± 2100 nM; IC50 ([5]; Homo sapiens, MDA-MB-435, 72 h): 6.5 ± 2.1 µM; IC50 [6]: > 20 µM; IC50 [7]: 2100 nM; IC50 ([8]; MTT, 72 h exposure (Table 2)): 400 ± 100 nM
C#CC(=O)N(c1ccc(-n2cnnn2)c(C)c1)C(C(=O)NC1CCCC1)c1ccc(F)cc1 (stereo not shown) [Compound 21]	520 nM	2200 nM	3100 nM	IC50 ([4]; Table 4, ovarian cancer panel): 310 nM
C#CC(=O)N(c1ccc(-n2cnnn2)c(C)c1)C(C(=O)NC1CCCC1)c1ccc(F)c(F)c1 (stereo not shown) [Compound 22]	320 nM	1500 nM	2500 nM	IC50 ([4]; Table 4, ovarian cancer panel): 330 nM
C#CC(=O)N(c1ccc(-n2cnnn2)c(C)c1)C(C(=O)NC1CCCC1)c1cccc(F)c1 (stereo not shown) [Compound 23]	2000 nM	1500 nM	250 nM	IC50 ([4]; Table 4, ovarian cancer panel): 720 nM
C#CC(=O)N(c1ccc(-n2cnnn2)c(C)c1)C(C(=O)NC1CCCC1)c1c(F)c(F)c(F)c(F)c1F (stereo not shown) [Compound 24]	450 nM	5000 nM	600 nM	–
C#CC(=O)N(C)C(C(=O)NC1CCCC1)c1cccs1 (stereo not shown) [Compound 25]	320 nM	2200 nM	530 nM	–
C#CC(=O)N(c1cccc(O)c1)C(C(=O)NC1CCCC1)c1cccs1 (stereo not shown) [Compound 26]	320 nM	2200 nM	1500 nM	–
C#CC(=O)N(c1cc(OC)c(OC)c(OC)c1)C(C(=O)NC1CCCC1)c1cccs1 (stereo not shown) [Compound 27]	330 nM	2200 nM	420 nM	–
C#CC(=O)N(CC(=O)NC1CCCC1)c1ccc(OC)cc1OC [Compound 28]	20 nM	520 nM	230 nM	–
C#CC(=O)N(CC(=O)NC1CCCC1)c1ccc(-n2cnnn2)c(C)c1 [Compound 30]	1800 nM	10000 nM	3000 nM	–
C#CC(=O)N(c1ccc(-n2cnnn2)c(C)c1)C(C(=O)NC1CCCC1)c1cccnc1 (stereo not shown) [Compound 31]	2500 nM	1500 nM	2500 nM	–
C#CC(=O)N(c1ccc(C(N)=O)cc1)C(C(=O)NC1CCCC1)c1ccccc1 (stereo not shown) [Compound 34]	2500 nM	1200 nM	2500 nM	–
C#CC(=O)N(c1cc(OC)cc(OC)c1)C(C(=O)NC1CCCCC1)c1ccc(OC)c(O)c1 (stereo not shown) [Compound 35]	5500 nM	2900 nM	7500 nM	–
C#CC(=O)NCC(=O)N(c1ccc(OC)cc1OC)C(C(=O)NC1CCCC1)c1cccs1 (stereo not shown) [Compound 36]	8500 nM	3100 nM	2300 nM	–
C#CC(=O)NCCC(=O)N(c1ccc(OC)cc1OC)C(C(=O)NC1CCCC1)c1cccs1 (stereo not shown) [Compound 37]	9000 nM	1500 nM	2300 nM	–
C#CC(=O)N(c1ccc(OC)cc1OC)C(C(=O)NCC(=O)OCC)c1cccs1 (stereo not shown) [Compound 38]	2600 ± 1500 nM	2800 ± 700 nM	320 nM	–
C#CC(=O)N(c1ccc(OC)cc1OC)C(C(=O)NCC(=O)O)c1cccs1 (stereo not shown) [Compound 39]	8000 nM	6000 nM	> 10000 nM	–
C#CC(=O)N(CC(=O)NCC(=O)OCC)c1ccc(OC)cc1OC [Compound 43]	140 nM	2200 nM	300 nM	–
C#CC(=O)N(CC(=O)NCC(=O)OCC)c1ccc(-n2cnnn2)c(C)c1 [Compound 44]	6300 nM	> 10000 nM	> 10000 nM	–
CC(=O)O[C@H]1C(=O)[C@@]2(C)[C@H]([C@H](OC(=O)c3ccccc3)[C@]3(O)C[C@H](OC(=O)[C@H](O)[C@@H](NC(=O)c4ccccc4)c4ccccc4)C(C)=C1C3(C)C)[C@]1(OC(C)=O)CO[C@@H]1C[C@@H]2O [paclitaxel, reference compound]	–	–	–	mitochondrial superoxide, fluorescence microscopy (MDA-MB-435 cells): only induced a minor amount of mitochondrial superoxide
